Patent US20230331690A1, “THC DERIVATIVES, ORAL DOSAGE FORMS COMPRISING SAME, USES THEREOF FOR TREATING DISEASES AND DISORDERS AND SYNTHESIS THEREOF” (BAR-ILAN UNIVERSITY, priority 2020, published 2023)
Where “and” joins values, the source holds several entries; their conditions need not be identical. Equal entries are not always repeated.

System: hind paw of mice
Experiment: Electronic Von-Frey mechanical sensitivity (withdrawal thresholds) after Paclitaxel-induced neuropathic pain
Type: in vivo
Settings: for Withdrawal test, test 1 / Withdrawal test, test 4 / Withdrawal test, test 5 / Withdrawal test, test 2 / Withdrawal test, test 3 / Withdrawal test, test 6: per animal; for Withdrawal test, All group average: 8 mice; for Withdrawal test, Average: average per animal; for Withdrawal test, test 6: additional test
Protocol: Mechanical sensitivity was evaluated by measuring the changes in tactile sensitivity in the hind paw of mice, using an Electronic Von-Frey apparatus (EVF). Withdrawal thresholds were measured, using the EVF apparatus, first at baseline (time=0) and then following drug, in a few periods after administration, by applying an accurate force on specific areas of the skin and measuring the needed force for the mouse to lift its paw.
Paclitaxel was utilized for the stimulation of a chemotherapy-induced neuropathic pain. Paclitaxel is anti-cancer chemotherapy drug classified as a “plant alkaloid” and an “antimicrotubule agent”.
Mice were divided into three groups of 8 mice each, as follows: • (a) Group no. 1—Morphine as positive control; • (b) Group no. […] 3—synthetic THC derivative 9-Desmethyl THC.
A portion of Paclitaxel was administered to each mouse by i.p. injection, on days 1, 3, 5 and 7 from the beginning of the experiment. At day 8, withdrawal thresholds were measured first at baseline (time=0), thereafter each mouse received a single portion of a drug substance, at 5 mg/Kg body weight concentration, by oral gavage and measurements took place.
The first checking point was 1 hour after administration of each drug. For every mouse, its threshold for the pain perception in which it removes its hind paw after the stabbing of the Von-Frey hair has been checked. Needed force (in gram force units) was measured each time and was recorded for every checking. This test was repeated 5 times for each mouse consecutively.
This procedure was repeated for all the three groups. The next checking point was 3 hours after administration, where the last withdrawal thresholds measurements were performed on the next morning, on day 9, which was 24 hours after administration.
Morphine was utilized as a positive control where group no. 1 mice received morphine (dissolved in a saline solution (0.9%) and injected subcutaneously) as an analgesic agent, prior to the mechanical sensitivity tests.
The tests described in this example are complicated and depend on numerous factors. Accordingly, results above 10.0 gram force (marked with an asterisk) were not included in the evaluation of the experimental data. In cases of exceptional results, an additional test was performed mouse (test 6) in order to assure the exceptional result.

[1] = t = 1 h after 5 mg/Kg, * values excluded
[2] = t = 3 h after 5 mg/Kg, * values excluded
[3] = t = 24 h after 5 mg/Kg, * values excluded

## [2H]C([2H])([2H])C1=C[C@H]2c3c(O)cc(CCCCC)cc3OC(C)(C)[C@@H]2CC1([2H])[2H] [9-CD3-(8-D2)-THC]
T = 1 h after 5 mg/Kg single dose (oral gavage; morphine s.c.), * values >10.0 excluded from evaluation
  Withdrawal test, test 1: 4.7 gram force and 4.8 gram force and 6.0 gram force (2×) and 5.0 gram force and 4.5 gram force and 6.1 gram force and 7.1 gram force
T = 1 h after 5 mg/Kg
  Withdrawal test, All group average: 5.68 gram force
  Withdrawal test, Average: 4.54 gram force and 6.14 gram force and 6.76 gram force and 5.24 gram force and 5.64 gram force and 4.88 gram force and 6.16 gram force and 6.06 gram force
  Withdrawal test, test 4: 4.3 gram force and 4.5 gram force and 5.9 gram force and 6.7 gram force and 7.1 gram force and 4.7 gram force and 5.3 gram force and 4.2 gram force
  Withdrawal test, test 5: 5.4 gram force and 8.7 gram force and 7.7 gram force and 5.2 gram force and 4.3 gram force and 4.7 gram force and 4.5 gram force and 8.5 gram force
[1]
  Withdrawal test, test 2: 4.1 gram force and 5.8 gram force and 6.5 gram force and 4.0 gram force and 4.8 gram force and 4.6 gram force and 8.9 gram force and 5.6 gram force
  Withdrawal test, test 3: 4.2 gram force and 6.9 gram force and 7.7 gram force and 5.3 gram force and 7.5 gram force and 4.3 gram force and 6.1 gram force and 4.9 gram force
T = 3 h after 5 mg/Kg
  Withdrawal test, All group average: 5.67 gram force
  Withdrawal test, Average: 5.16 gram force and 6.42 gram force and 4.72 gram force and 6.08 gram force (2×) and 5.64 gram force and 5.92 gram force and 5.30 gram force
  Withdrawal test, test 2: 5.9 gram force and 5.4 gram force and 5.0 gram force and 5.1 gram force (2×) and 9.2 gram force and 7.2 gram force and 6.5 gram force
  Withdrawal test, test 4: 4.7 gram force and 9.2 gram force and 4.3 gram force and 5.9 gram force and 6.2 gram force and 6.6 gram force and 5.2 gram force and 4.6 gram force
  Withdrawal test, test 5: 5.8 gram force and 6.7 gram force and 4.0 gram force (2×) and 6.4 gram force and 4.5 gram force and 4.8 gram force and 5.3 gram force
  Withdrawal test, test 6: 4.1 gram force and 4.9 gram force (2×) and 4.3 gram force
[2]
  Withdrawal test, test 1: 4.6 gram force and 4.4 gram force (2×) and 4.7 gram force and 6.9 gram force and 8.2 gram force and 7.6 gram force and 4.5 gram force
  Withdrawal test, test 3: 4.8 gram force and 6.4 gram force and 5.6 gram force (3×) and *12.8 gram force and 4.7 gram force and 4.9 gram force
T = 24 h after 5 mg/Kg
  Withdrawal test, All group average: 5.28 gram force
  Withdrawal test, Average: 4.70 gram force and 5.96 gram force and 4.56 gram force and 6.33 gram force and 4.98 gram force and 5.32 gram force and 4.80 gram force and 5.56 gram force
  Withdrawal test, test 1: 6.0 gram force and 7.5 gram force and 4.0 gram force and 7.6 gram force and 5.0 gram force and 4.4 gram force and 4.9 gram force and 4.5 gram force
  Withdrawal test, test 2: 4.6 gram force and 6.0 gram force and 4.0 gram force and 7.5 gram force and 6.5 gram force and 5.3 gram force and 5.7 gram force and 5.0 gram force
  Withdrawal test, test 3: 4.6 gram force and 4.2 gram force and 4.0 gram force (2×) and 5.6 gram force and 5.4 gram force and 5.3 gram force and 6.8 gram force
  Withdrawal test, test 6: 4.5 gram force
T = 24 h after 5 mg/Kg, group average vs baseline
  Withdrawal test, Change from b.l.: −2.6%
[3]
  Withdrawal test, test 4: 4.3 gram force (2×) and 4.0 gram force and 6.8 gram force (2×) and *10.3 gram force and 4.1 gram force and 5.2 gram force
  Withdrawal test, test 5: 4.0 gram force (3×) and 8.1 gram force and 4.6 gram force and 5.1 gram force and 4.7 gram force and 6.3 gram force
